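Dose response: 5 concentrations. Exposure: 48 h. Format: 96-well plates. Endpoint: linear interpolation; highest concentration if not reached. GI50 marks 50% less growth.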 Activity calls are given as the source filed them. Rule as the data show it: active = GI50 up to about 1.1 µM and inactive = higher.
What was measured:
Test in all cases: NCI tumour cell line growth inhibition, 48 h
UACC-62 = test system: UACC-62
CCRF-CEM = test system: CCRF-CEM
SW-620 = test system: SW-620
SNB-19 = test system: SNB-19
A549 = test system: A549
SN12C = test system: SN12C
UO-31 = test system: UO-31
NCI-H23 = test system: NCI-H23
MDA-N = test system: MDA-N
MOLT-4 = test system: MOLT-4
NCI-H226 = test system: NCI-H226
786-0 = test system: 786-0
HCT-15 = test system: HCT-15
HT-29 = test system: HT-29
DU-145 = test system: DU-145
NCI-H522 = test system: NCI-H522
Hs-578T = test system: Hs-578T
SNB-75 = test system: SNB-75
A498 = test system: A498
RXF 393 = test system: RXF 393

Row | Compound | GI50 (UACC-62) | GI50 (CCRF-CEM) | GI50 (SW-620) | GI50 (SNB-19) | GI50 (A549) | GI50 (SN12C) | GI50 (UO-31) | GI50 (NCI-H23) | GI50 (MDA-N) | GI50 (MOLT-4) | GI50 (NCI-H226) | GI50 (786-0) | GI50 (HCT-15) | GI50 (HT-29) | GI50 (DU-145) | GI50 (NCI-H522) | GI50 (Hs-578T) | GI50 (SNB-75) | GI50 (A498) | GI50 (RXF 393)
1 | CNc1ccc([S+]([O-])Nc2ccccc2)cc1 (stereo not drawn) | 23.4 µM (inactive) | > 100 µM (inactive) | 70.8 µM (inactive) | > 100 µM (inactive) | 45.6 µM (inactive) | > 100 µM (inactive) | 23.9 µM (inactive) | 55.7 µM (inactive) | 46.1 µM (inactive) | 52.6 µM (inactive) | 21.2 µM (inactive) | 53.8 µM (inactive) | 43.9 µM | 97.7 µM (inactive) | > 100 µM (inactive) | 19 µM (inactive) | 37.7 µM (inactive) |  |  | 
2 | COC1=CC(=O)C(O)=C(CC2(C)C(C)CCC3(C)C2CCCC3(C)C)C1=O (stereo not drawn) | 2.04 µM (inactive) | 1.91 µM (inactive) | 4.03 µM (inactive) | 3.58 µM (inactive) | 2.99 µM (inactive) | 3.7 µM (inactive) | 4.49 µM (inactive) | 2.84 µM (inactive) |  | 2.4 µM (inactive) | 2.77 µM (inactive) | 3.86 µM (inactive) | 3.3 µM | 10.3 µM (inactive) |  | 2.7 µM (inactive) |  | 3.89 µM (inactive) | 10.1 µM (inactive) | 2.31 µM (inactive)
3 | CC1(c2ccccc2Cl)C(C#N)C(=O)NC(=O)C1C#N (stereo not drawn) | 33.6 µM (inactive) | 30.1 µM (inactive) | 43.8 µM (inactive) | 28.7 µM (inactive) | 45.5 µM (inactive) | 28.7 µM (inactive) | 27.5 µM (inactive) | 33.3 µM (inactive) |  | 31.2 µM (inactive) | 27.5 µM (inactive) | 45.6 µM (inactive) | > 100 µM | 36.6 µM (inactive) |  | 20.8 µM (inactive) |  | 24.8 µM (inactive) | 36.4 µM (inactive) | 27.9 µM (inactive)
4 | O=C(OCN1C(=O)C2C3C=CC(C2C1=O)C1C2C(=O)N(COC(=O)C4CCCN4)C(=O)C2C31)C1CCCN1 (stereo not drawn) | > 76.7 µM (inactive) | 21.8 µM (inactive) | 30.2 µM (inactive) | > 100 µM (inactive) | 62.5 µM (inactive) | > 72.3 µM (inactive) | > 100 µM (inactive) | > 100 µM (inactive) |  | 32.3 µM (inactive) | > 100 µM (inactive) | 35.6 µM (inactive) | 25 µM | 67 µM (inactive) |  | 78.3 µM (inactive) |  | > 82.6 µM (inactive) | > 100 µM (inactive) | > 76.6 µM (inactive)
